The test system of this assay is P388. The assay is described as follows: Cytotoxicity against mouse P388 cells after 48 hrs by MTT assay. The following applies: P388, 48 h. It is filed as functional, cell-based. (In general: Formazan colour is commonly taken as a measure of viable cells.)

≈ marks a conversion by molar mass, not a printed value.

As for `CC(=O)O[C@H]1C(=O)[C@@]2(C)[C@H]([C@H](OC(=O)c3ccccc3)[C@]3(O)C[C@H](OC(=O)[C@H](O)[C@@H](NC(=O)c4ccccc4)c4ccccc4)C(C)=C1C3(C)C)[C@]1(OC(C)=O)CO[C@@H]1C[C@@H]2O` [PACLITAXEL], the IC50 came out at 0.03 µg/mL (≈ 0.0351 µM).

On to `C=C1[C@@H](O)C[C@H](OC(C)=O)[C@@]2(C)[C@@H](OC(C)=O)[C@H](OC(=O)c3ccccc3)C3=C(C)C(=O)C[C@@]3(C(C)(C)O)[C@@H](OC(C)=O)[C@H]12` [13-OXO-TAXCHININ A], for which 10 µg/mL (≈ 16.3 µM) corresponded to half-maximal inhibition (IC50).

Take `CCC(C)CCC(=O)N[C@@H](c1ccccc1)[C@@H](O)C(=O)O[C@H]1C[C@@]2(O)[C@@H](OC(=O)c3ccccc3)[C@@H]3[C@]4(OC(C)=O)CO[C@@H]4C[C@H](O)[C@@]3(C)C(=O)[C@H](OC(C)=O)C(=C1C)C2(C)C` (stereo partly drawn) [TAXUSPINANANE A]: the IC50 came out at 0.01 µg/mL (≈ 0.0116 µM).

For orientation: IC50 means the concentration at which inhibition is half-maximal. A high value points to weaker potency.
